According to patent US20170058314A1, “NOVEL METHODOLOGY FOR IDENTIFYING ANTI-PERSISTER ACTIVITY AND ANTIMICROBIAL SUSCEPTIBILITY FOR BORRELIA BURGDORFERI AND OTHER BACTERIA” (priority 2014, published 2017):
≈ marks a conversion by molar mass, not a printed value. Marks after values point to notes of the source that are not given here.

Key:
[1] = tested on: S. aureus strains (Newman, USA300, CA-409, CA-127, NY-315); assay: Rapid SYBR Green/PI antibiotic susceptibility test; assay type: cell-based, Staphylococcus aureus; conditions: for cut-off (averaged proportion of killed cells) for resistant strains / cut-off (averaged proportion of killed cells) for susceptible strains: 100 μg/mL, 1.5 hours; for percent killed, resistant strain CA-409: kanamycin 25, ciprofloxacin 50, gentamicin 400 μg/mL; for percent killed, sensitive Newman strain: kanamycin 25, erythromycin 400, ciprofloxacin 50, gentamicin 400 μg/mL
[2] = tested on: stationary phase B. burgdorferi persisters (strain B31); assay: SYBR Green I/PI viability assay (plate reader), FDA-approved drug library screen; conditions: for Ratio of Green/Red fluorescence, Primary screening / Ratio of Green/Red fluorescence, Rescreening (first column) / Ratio of Green/Red fluorescence, Rescreening (second column): 7 days, stationary phase; for viability at 50 µM: Borreliella burgdorferi, 168 h, read-out: Residual viable cells (regression equation, SYBR Green I/PI assay)
[3] = tested on: stationary phase B. burgdorferi persisters (strain B31); assay: epifluorescence microscope counting after SYBR Green I/PI staining, FDA drug screen; conditions: for viability at 50 µM: Borreliella burgdorferi, 168 h, read-out: Residual viable cells (epifluorescence microscope counting)
[4] = tested on: round body form of B. burgdorferi; assay: SYBR Green I/PI assay on amoxicillin-induced round body form; conditions: for viability at 50 µM: Borreliella burgdorferi, 168 h, read-out: Residual viable cells (SYBR Green I/PI assay); for Live cell %, round body form: 10 μg/mL drugs or combinations
[5] = tested on: log phase and stationary phase B. burgdorferi culture; assay: Antibiotic exposure assay, SYBR Green I/PI (drugs alone and combinations); conditions: for Live cell %, ten day old stationary phase culture (in brackets): 10 μg/mL drugs or combinations
Method: To qualitatively determine the effect of antibiotics, 10 μL of each compound from the pre-diluted plate or pre-diluted stock was added to stationary phase B. burgdorferi culture in the 96-well plate. The final volume per well was adjusted to 100 μL at a concentration of 10 μg/mL for each antibiotic. Plates were sealed and placed in a 33° C. incubator for 7 days. The SYBR Green I/PI viability assay was used to assess the live and dead cells after antibiotic exposure as described (Feng, Wang, Shi, et al., 2014). Briefly, 10 μL of SYBR Green I (10,000×stock, Invitrogen) was mixed with 30 μL propidium iodide (PI, 20 mM) into 1.0 mL of sterile dH2O. Then, 10 μL of staining mixture was added to each well and mixed thoroughly. The plates were incubated at room temperature in the dark for 15 minutes followed by plate reading at excitation wavelength at 485 nm and the fluorescence intensity at 535 nm (green emission) and 635 nm (red emission) in microplate reader (HTS 7000 plus Bio Assay Reader, PerkinElmer Inc., USA). With least-square fitting analysis, the regression equation and regression curve of the relationship between percentage of live bacteria and green/red fluorescence ratios was obtained. The regression equation was used to calculate the percentage of live cells in each well of the 96-well plate.
To qualitatively determine the effect of antibiotics, 10 μL of each compound (final concentration 50 μM) from the pre-diluted plate or pre-diluted stock was added to round body form or stationary phase B. burgdorferi culture in the 96-well plate. The final volume per well was adjusted to 100 μL. Plates were sealed and placed in a 33° C. incubator for 7 days. The SYBR Green I/PI viability assay was used to assess the live and dead cells after antibiotic exposure as described (Feng, Wang, Shi, et al., 2014). Briefly, 10 μL of SYBR Green I (10,000×stock, Invitrogen) was mixed with 30 μL propidium iodide (PI, 20 mM, Sigma-Aldrich) into 1.0 mL of sterile dH2O. Then, 10 μL staining mixture was added to each well and mixed thoroughly. The plates were incubated at room temperature in the dark for 15 minutes followed by plate reading at excitation wavelength at 485 nm and the fluorescence intensity at 535 nm (green emission) and 635 nm (red emission) in microplate reader (HTS 7000 plus Bio Assay Reader, PerkinElmer Inc., USA). With least-square fitting analysis, the regression equation and regression curve of the relationship between percentage of live and dead bacteria as shown in green/red fluorescence ratios was obtained. The regression equation was used to calculate the percentage of live cells in each well of the 96-well plate.
Round body form and ten day old stationary phase (in brackets) B. burgdorferi culture was treated with 10 μg/mL drugs or their combinations for 7 days. Residual viable B. burgdorferi was calculated according to the regression equation and ratio of Green/Red fluorescence obtained by SYBR Green I/PI assay as described (Feng, Wang, Shi, et al., 2014). Direct microscopy counting was employed to rectify the results of the SYBR Green I/PI assay. […] Abbreviation: Dox, doxcycline; CefP, cefoperazone; DAP, daptomycin; CefM, cefmetazole; Scp, sulfachlorpyridazine; Art, artemisinin; Nft, nitrofurantoin.

[6] = tested on: B. burgdorferi (growing, strain B31); assay: MIC determination, standard microdilution method; assay type: cell-based, Borrelia burgdorferi; conditions: Borreliella burgdorferi; growing B. burgdorferi; read-out: MIC
[7] = 50 μM, 7-day old stationary phase cells treated for 7 days

Row | Molecule | Ratio of Green/Red fluorescence, Primary screening ([2]; 50 μM) | Ratio of Green/Red fluorescence, Rescreening (first column) ([2]; 50 μM) | Ratio of Green/Red fluorescence, Rescreening (second column) ([2]; 50 μM) | viability at 50 µM [2] [%] | viability at 50 µM [3] [%] | Ratios of green/red fluorescence, Primary screening ([4]; round body form, 50 μM, 7 days) | Ratios of green/red fluorescence, Rescreening (first column) ([4]; round body form, 50 μM, 7 days) | Ratios of green/red fluorescence, Rescreening (second column) ([4]; round body form, 50 μM, 7 days) | further results
1 | gentamicin | – | – | – | – | – | – | – | – | cut-off (averaged proportion of killed cells) for resistant strains [1]: −0.2; cut-off (averaged proportion of killed cells) for susceptible strains [1]: −0.3; percent killed, resistant strain CA-409 ([1]; 30 minutes): 10%; percent killed, sensitive Newman strain ([1]; 30 minutes): 27%
2 | Nc1nc(/C(=C/CC(=O)O)C(=O)N[C@@H]2C(=O)N3C(C(=O)O)=CCS[C@H]23)cs1 [Ceftibuten] | 6.81 | 6.78 | 7.27 | 49 | 51 | – | – | – | –
3 | CO/N=C(\C(=O)N[C@@H]1C(=O)N2C(C(=O)O)=C(COC(N)=O)CS[C@H]12)c1ccco1 [Cefuroxime] | 6.59 | 6.84 | 6.67 | 43 | 49 | 6.29 | 6.28 | 6.31 | viability at 50 µM [4]: 34%
4 | CN(C)[C@@H]1C(O)=C(C(N)=O)C(=O)[C@@]2(O)C(O)=C3C(=O)c4c(O)cccc4[C@@](C)(O)[C@H]3C[C@@H]12 [Tetracycline] | – | – | – | 50 | 54 | – | – | – | –
5 | C[C@@H]1CC[C@H]2[C@@H](C)C(=O)O[C@@H]3O[C@@]4(C)CC[C@@H]1[C@]32OO4 [Artemisinin] | – | – | – | – | – | 5.96 | 6.14 | 6.17 | Live cell %, ten day old stationary phase culture (in brackets) ([5]; 7 days): 73%; Live cell %, round body form ([4]; 7 days): 28%; viability at 50 µM [4]: 24%; MIC [6]: 50 to 100 µg/mL (≈ 177 to 354 µM)
6 | CC(=O)OCC1=C(C(=O)O)N2C(=O)[C@@H](NC(=O)Cc3cccs3)[C@H]2SC1 [Cephalothin] | 6.74 | 6.49 | 6.55 | 40 | 49 | – | – | – | –
7 | NC[C@H]1O[C@H](O[C@H]2[C@H](O)[C@@H](O[C@H]3O[C@H](CO)[C@@H](O)[C@H](N)[C@H]3O)[C@H](N)C[C@@H]2N)[C@H](O)[C@@H](O)[C@@H]1O [kanamycin] | – | – | – | – | – | – | – | – | cut-off (averaged proportion of killed cells) for resistant strains [1]: −0.01; cut-off (averaged proportion of killed cells) for susceptible strains [1]: −0.2; percent killed, resistant strain CA-127 ([1]; 30 minutes, kanamycin 25, ciprofloxacin 50 μg/mL): 5%; percent killed, resistant strain CA-409 ([1]; 30 minutes): 5%; percent killed, resistant strain NY-315 ([1]; 30 minutes, kanamycin 25, erythromycin 400 μg/mL): 5%; percent killed, sensitive Newman strain ([1]; 30 minutes): 27%
8 | polymyxin B [Pmb] | – | – | – | – | – | – | – | – | Live Cell % (residual viable B. burgdorferi) ([5]; ten-day-old stationary phase culture enriched with micro-colonies, 10 μg/mL each drug, 7 days): 77% ^c
9 | CC1(C)S[C@@H]2[C@H](NC(=O)Cc3ccccc3)C(=O)N2[C@H]1C(=O)O [Penicillin G] | 7.41 | 7.68 | 7.92 | – | – | 6.33 | 6.51 | 6.33 | Residual viable cells (regression equation, SYBR Green I/PI assay) [2, 7]: 68%; Residual viable cells (SYBR Green I/PI assay) ([4]; round body form, 50 μM, 7 days): 38%; Residual viable cells (epifluorescence microscope counting) [3, 7]: 75%
10 | Nc1ccc(S(=O)(=O)Nc2ccc(Cl)nn2)cc1 [Scp, sulfachlorpyridazine] | – | – | – | – | – | – | – | – | Live cell %, ten day old stationary phase culture (in brackets) ([5]; 7 days): 68%; residual viable / live cells, stated in text for stationary phase B. burgdorferi ([5]; drug combination test, refers to Table 6): about 38%; Live cell %, round body form ([4]; 7 days): 38%
